Columns and labels:
[1] = test system: lfabp:GFP zebrafish embryos; details: clinical treatment for APAP toxicity; cited from earlier work
[2] = test system: human primary hepatocytes; test: High-throughput liver platform, primary screening: secreted albumin by competitive ELISA; assay type: cell-based
Text: In order to evaluate the phenotype of treated cells, a secondary readout was included to quantify hepatocyte functions via competitive ELISA. This biochemical assay measured the level of secreted albumin as a marker for protein synthesis functions of the cultured hepatocytes (FIG. 1A bottom).
FIG. 1B top summarizes the workflow of the screen. Primary screening was done on human primary hepatocytes, preconditioned for seven days by non-parenchymal cells in the screening platform. Upon stabilization in vitro, cultures were treated with the chemical library for 48 hours. All compounds were tested in duplicates, at a single concentration of 15 μM. This single concentration was selected via a pilot screen of ˜2,000 small molecules. All 12,480 small molecules were initially tested on a single donor of cryopreserved hepatocytes (donor a) in order to eliminate noise from donor-to-donor variability. Following compound treatment, media supernatants were collected for functional analyses via ELISA and cultures were fixed in 4% paraformaldehyde for proliferation analyses via imaging.

[3] = test system: iHeps; test: Differentiation of human iPS-derived hepatocytes (iHeps): morphology and immunofluorescent staining; assay type: cell-based
Description: (§1) The ability of compounds of the invention to affect the differentiation and maturation of iHeps was tested. Undifferentiated iPS cells were cultured on Matrigel, supported by primary mouse embryonic fibroblasts. Once confluent, iPS cells were transitioned to differentiation media, with sequential addition of growth factors (Activin A, BMP-4, bFGF, HGF, and OSM) to guide differentiation, first into endoderm, then into hepatic progenitor cells and finally into iHeps. Compound treatment started on day 21 post initiation of differentiation and acted over a period of 9 days. FH1 and FPH2 were used to treat iHeps. FH1 doubled albumin secretion during primary screening (FIG. 4A left) in a dose-responsive manner (FIG. 4A right).
To examine the effects of FH1 and FPH2 at the protein level, AFP, albumin and CYP3A4 levels weew visualized via immunofluorescent staining. […] This is in agreement with primary screening results as well as earlier morphological findings. Untreated cultures had islands that double stain for albumin and the fetal marker AFP, with very little presence of the mature marker CYP3A4.

[4] = test system: iHeps; test: Gene expression profiles of treated iHeps (Luminex); assay type: cell-based, human
Description: Cells were lysed using RLT buffer (Qiagen) or Trizol (Invitrogen) and purified using the Mini-RNeasy kit (Qiagen). Gene expression was determined using Luminex analysis, as previously described. Briefly, total RNA was immobilized on a Qiagen turbo capture 384-well plate, and reverse-transcribed using oligodT priming A biotinylated FlexMap tag sequence unique to each gene of interest and a phosphorylated downstream probe were then added to resulting cDNAs to generate biotinylated FlexMap-tagged amplicons. Universal PCR was then performed for 35 cycles using a biotinylated T7 forward primer and T3 reverse primer in buffer with dNTPs and Taq polymerase. FlexMap microsphere beads conjugated with antitag oligonucleotides were then added and allowed to hybridize. Amplicons were captured by streptavidin-phyoerythrin, and 100 events per bead were analyzed for internal bead color and phyoerythrin reporter fluorescence on a Luminex FlexMap 3D analyzer. Data for replicate loadings, expressed in mean fluorescent intensity of at least 100 beads per sample, were scaled to the human transferrin gene and row-normalized for heat map representation using GeneE open software (Broad Institute).
as §1
Euclidian clustering analyses groups untreated cells with fetal hepatocytes and treated cells with mature hepatocytes (FIG. 4C left). Of particular interest are ABC transporters, CYP3A4 and GSTP1 expression levels. ABC transporters are known to mature after birth. ABCB11, also known as bile-salt export pump (BSEP), increased ˜3 fold and ˜4 fold in expression levels with FPH2 and FH1 treatment, respectively, compared to untreated iHeps. In contrast, GSTP1 expression, whose levels decrease with maturity, remained low upon FPH2 and FH1 treatment compared to untreated iHeps (FIG. 4C right).

[5] = test system: iHeps; test: CYP450 activities of treated iHeps through isoenzyme-specific probes; assay type: cell-based, human
Description: Culture media were collected and frozen at −20° C. until analysis. Albumin content was measured through sandwich ELISA assays (MP Biomedicals, Fitzgerald, Bethyl Laboratories) using horseradish peroxidase detection and 3,3′,5,5′-tetramethylbenzidine (TMB, Fitzgerald Industries) as a substrate. Urea concentration was determined colorimetrically using diacetylmonoxime with acid and heat (Stanbio Labs). To quantify CYP450 activity, at 48 hours after small molecule exposure, cultures were incubated with substrates (coumarin from Sigma for CYP2A6, luciferin-IPA from Promega for CYP3A4) for 4 hours at 37° C. Incubation medium was collected and metabolite concentration quantified via luminescence, or fluorescence after hydrolization of potential metabolite conjugates by β-glucuronidase/arylsulfatase (Roche, Ind.).
The ability of compounds of the invention to affect the differentiation and maturation of iHeps was tested. Undifferentiated iPS cells were cultured on Matrigel, supported by primary mouse embryonic fibroblasts. […]
To confirm the staining results, secreted levels of albumin and AFP via ELISA, and CYP450 activities through isoenzyme-specific probes that are either fluorescent or luminescent were measured. […]

[6] = test system: transgenic lfabp:GFP zebrafish; test: Liver development in transgenic lfabp:GFP zebrafish embryos; assay type: in vivo; details: exposure 24 to 72 hrs post fertilization
Text: The effects of FH1 and PH1 on liver development were examined in transgenic lfabp:GFP zebrafish, in which GFP expression is restricted to the liver. Zebrafish embryos were allowed to develop normally for 24 hrs post fertilization and then exposed to either FH1 or PH1 until 72 hrs post fertilization (FIG. 8A). Livers were visualized by whole-mount fluorescence imaging (FIG. 8B) and lfabp in situ hybridization (FIG. 8C).

[7] = test system: lfabp:GFP zebrafish embryos; test: Survival of zebrafish embryos after a fatal dose of APAP; assay type: in vivo; details: 10 mM APAP concurrently with compound, from 72 hrs post fertilization
Description: The effect of FH1 on zebrafish survival following APAP-induced toxicity was examined. lfabp:GFP zebrafish embryos were allowed to develop normally for 72 hrs post fertilization and then exposed to a fatal dose of 10 mM APAP concurrently with FH1 (FIG. 9A).

[8] = test system: lfabp:GFP zebrafish embryos; test: Therapeutic window after a non-fatal dose of APAP in zebrafish embryos (liver size); assay type: in vivo; details: 5 mM APAP for 24 hrs before 24 hour treatment
Description: The current clinical treatment for APAP toxicity is the administration of NAC, which has a limited window of efficacy. To examine the therapeutic window of FH1 and PH1 efficacy, lfabp:GFP zebrafish embryos were allowed to develop normally for 48 hrs post fertilization, and then exposed to a non-fatal dose of 5 mM APAP for 24 hrs before initiation of treatment with FH1 or PH1 for an additional 24 hour period (FIG. 10A).

[9] = test system: iPS-derived endothelial cells; test: Differentiation of iPS-derived endothelial cells (nitric oxide); assay type: cell-based
Description: Cells were assayed for nitric oxide (NO), a mature marker for endothelial cells. CB=FPH2, M=FH1, E=PH1, while Null and DMSO are control runs with no additive and vehicle only, respectively.

CC(=O)N[C@@H](CS)C(=O)O [NAC]
typical therapeutic window [1]: ~8 h

CC(=O)Nc1ccc(Cc2ccc(NC(C)=O)cc2)cc1 [FH1, N,N′-(methylenebis(4,1-phenylene))diacetamide]
albumin secretion during primary screening [2]: doubled
staining of treated islands for albumin, CYP3A4 and AFP ([3]; immunofluorescent staining): double stained strongly for albumin and CYP3A4, with very minimal presence of AFP
albumin staining (immunofluorescent) ([3]; treated iHeps): dramatic increases
hepatocyte phenotype of treated iHeps ([3]; treatment from day 21, 9 days): more mature hepatocyte phenotypes
ABCB11 (BSEP) expression level increase compared to untreated iHeps [4]: ~4 fold
GSTP1 expression compared to untreated iHeps [4]: remained low
CYP3A4 activity increase [5]: 16 times
liver size compared to DMSO-treated controls [6]: increased
survival of embryos [7]: 71%
embryonic liver size / liver mass after APAP compared to controls [8]: mitigated APAP-induced loss of liver mass
differentiation of iPS-derived endothelial cells (nitric oxide) [9]: induce differentiation
